Legend:
Test in all cases: differential drug sensitivity score (dDSS) relative to sarcoma reference cohort mean DSS (DSS units (0-100 scale difference)); higher = more selective sensitivity than reference sarcomas
Settings in all cases: exposure time: 72 h; concentration range: 10-10000 nM
CDS-ZH001-2 = system: CDS-ZH001-2 (patient-derived CIC-DUX4 sarcoma tumoroid)
Description: (§1)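 Drug response profiling of patient-derived Ewing sarcoma and CIC::DUX4 sarcoma tumoroid models (or cells tested directly after isolation from the tumor, 'direct'). The DSS is the normalised AUC (0-100); dDSS is the sample DSS minus the mean DSS of a 34-sarcoma reference cohort profiled in the same lab.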

CDS-ZH001 = system: CDS-ZH001 (patient-derived CIC-DUX4 sarcoma tumoroid)
Description: as §1

CDS-ZH002 direct = system: CDS-ZH002 direct (CIC-DUX4 sarcoma cells right after isolation)
Description: as §1

CDS-ZH002 = system: CDS-ZH002 (patient-derived CIC-DUX4 sarcoma tumoroid)
Description: as §1

CDS-ZH003 = system: CDS-ZH003 (patient-derived CIC-DUX4 sarcoma tumoroid)
Description: as §1

ES-ZH001 = system: ES-ZH001 (patient-derived Ewing sarcoma tumoroid)
Description: as §1

ES-ZH002 = system: ES-ZH002 (patient-derived Ewing sarcoma tumoroid)
Description: as §1

ES-ZH004 = system: ES-ZH004 (patient-derived Ewing sarcoma tumoroid)
Description: as §1

ES-ZH007 = system: ES-ZH007 (patient-derived Ewing sarcoma tumoroid)
Description: as §1

ES-ZH008 = system: ES-ZH008 (patient-derived Ewing sarcoma tumoroid)
Description: as §1

ES-ZH009 = system: ES-ZH009 (patient-derived Ewing sarcoma tumoroid)
Description: as §1

ES-ZH016 direct = system: ES-ZH016 direct (Ewing sarcoma cells right after isolation)
Description: as §1

ES-ZH016 = system: ES-ZH016 (patient-derived Ewing sarcoma tumoroid)
Description: as §1

Row | SMILES | differential drug sensitivity score (CDS-ZH001-2) | differential drug sensitivity score (CDS-ZH001) | differential drug sensitivity score (CDS-ZH002 direct) | differential drug sensitivity score (CDS-ZH002) | differential drug sensitivity score (CDS-ZH003) | differential drug sensitivity score (ES-ZH001) | differential drug sensitivity score (ES-ZH002) | differential drug sensitivity score (ES-ZH004) | differential drug sensitivity score (ES-ZH007) | differential drug sensitivity score (ES-ZH008) | differential drug sensitivity score (ES-ZH009) | differential drug sensitivity score (ES-ZH016 direct) | differential drug sensitivity score (ES-ZH016)
1 | COc1cc2nccc(Oc3ccc(NC(=O)C4(C(=O)Nc5ccc(F)cc5)CC4)cc3)c2cc1OC [Cabozantinib] | -2.6 | -2.6 | -2 | -2.6 | -1.5 | 3.6 | 3.4 | 5.9 | -1 | 1.7 | -1.5 | -2.6 | -2.4
2 | Cc1c(-c2c(-c3ccc(F)o3)sc3ncnc(O[C@H](Cc4ccccc4OCc4ccnn4CC(F)(F)F)C(=O)O)c23)ccc(OCCN2CCN(C)CC2)c1Cl | 29.6 | 32.7 | 19.6 | 10.4 | 31.7 | -11.5 | 9.2 | 12.2 | 28.5 | 8.1 | 11.6 | 14.5 | 7
3 | COc1nc(N)nc2c1ncn2[C@@H]1O[C@H](CO)[C@@H](O)[C@@H]1O [Nelarabine] | -2.5 | -2.5 | -2.5 | -2.5 | -2.5 | 3.2 | 8.4 | 1 | -1.6 | 5.2 | -2.5 | -2.5 | -2.5
4 | O=c1ncn2nc(Sc3ccc(F)cc3F)ccc2c1-c1c(Cl)cccc1Cl [Neflamapimod] | 5 | -2.7 | 1 | -1.2 | -5.6 | 3.5 | 5.8 | 0.5 | 0.5 | 7.4 | 5.9 | 11.9 | 2.9
5 | S=c1[nH]cnc2nc[nH]c12 [Mercaptopurine] | 12 | 3.8 | -1.8 | -1.3 | -5 | 0.9 | 0.3 | -4.2 | -0.4 | -1.6 | 7.4 | 4.9 | 2.9
6 | CS(=O)(=O)CCNCc1ccc(-c2ccc3ncnc(Nc4ccc(OCc5cccc(F)c5)c(Cl)c4)c3c2)o1 [Lapatinib] | -0.5 | -0.7 | -0.7 | -0.7 | -0.7 | -0.7 | 0.3 | -0.7 | -0.7 | -0.7 | -0.7 | -0.5 | -0.7
7 | CCc1cnn2c(NCc3ccc[n+]([O-])c3)cc(N3CCCC[C@H]3CCO)nc12 [Dinaciclib] | 11.5 | 14 | 12.8 | 12 | 14 | 9.8 | 11.7 | 9.8 | 9.6 | 6.6 | 13.8 | 11.6 | 12.2
8 | C[C@]1(O)C[C@@H](c2nc(-c3ccc4ccc(-c5ccccc5)nc4c3)c3c(N)nccn32)C1 [Linsitinib] | 5.7 | 3.8 | -5.9 | -5 | 5.7 | 0.8 | 15.2 | 3.2 | 3 | 4.9 | 3.7 | 3.2 | 6.8
9 | CC[C@@H]1C(=O)N(C)c2cnc(Nc3ccc(C(=O)N[C@H]4CC[C@H](N5CCN(CC6CC6)CC5)CC4)cc3OC)nc2N1C(C)C [Volasertib] | 13.2 | -2.4 | -3.8 | 4 | -2.3 | 10.3 | 9.4 | 0.5 | 2.9 | 4.5 | 16.1 | 16.6 | 8.9
10 | CN[C@@H](C)C(=O)N[C@H](C(=O)N1CCC[C@H]1c1nc(C(=O)c2ccc(F)cc2)cs1)C1CCCCC1 [LCL161] | 4.5 | 11.6 | 1 | -1.3 | 3.3 | -1.3 | -1.3 | -0.7 | -0.2 | -0.8 | -1.3 | 0.8 | -1.3
11 | CO[C@@H](C)Cn1c(=O)n(C)c2cnc3ccc(-c4cncc(C(C)(C)O)c4)cc3c21 [Samotolisib] | 0.9 | 2.3 | 4.5 | -8.8 | 0.5 | 1 | 12.2 | 2.3 | 2.6 | 10.9 | 7.1 | -2.7 | 6
12 | Cc1ccc(C(=O)Nc2cccc(C(F)(F)F)c2)cc1Nc1nc(-c2cccnc2)nc2c1cnn2C [BHG712] | -1.6 | -1.6 | -1.6 | -1.6 | -1.6 | -1.1 | 3.8 | 0.6 | -1.6 | 7.1 | -1.6 | -1.6 | -1.6
13 | Nc1cccc2c1CN(C1CCC(=O)NC1=O)C2=O (configuration not stated) [Lenalidomide] | -1.2 | -1.2 | -1.2 | -1.2 | -1.2 | 0.4 | 1.8 | 7.7 | -1.2 | 7.4 | -1.2 | -1.2 | -1.2
14 | CCN1CCN(Cc2ccc(-c3cc4c(N[C@H](C)c5ccccc5)ncnc4[nH]3)cc2)CC1 [AEE788] | -0.2 | -0.7 | -1.2 | -3 | 5.8 | 3.6 | 0.3 | -1.1 | -4 | -0.1 | 1.6 | -6.1 | -4.1
15 | CCNC(=O)C[C@@H]1N=C(c2ccc(Cl)cc2)c2cc(OC)ccc2-n2c(C)nnc21 [Molibresib] | -1 | -1.2 | -3.9 | -5.5 | -5.3 | 0.4 | 5.5 | -0.4 | -1.8 | 6.8 | 5.5 | 4.2 | 0.4
16 | COc1cc2nccc(Oc3ccc(NC(=O)NC4CC4)c(Cl)c3)c2cc1C(N)=O [Lenvatinib] | -2.4 | -2.4 | -2.4 | -2.4 | -2.4 | 3.9 | 5.8 | 0.5 | -1.2 | 5 | -2.4 | -2.4 | -2.4
17 | CNC(=O)c1ccccc1Sc1ccc2c(/C=C/c3ccccn3)n[nH]c2c1 [Axitinib] | -0.8 | -0.9 | -0.9 | -0.9 | 6 | -0.9 | 2.2 | -0.9 | -0.9 | -0.9 | 0.4 | 3.8 | -0.9
18 | CO[C@@H]1[C@H](N(C)C(=O)c2ccccc2)C[C@H]2O[C@]1(C)n1c3ccccc3c3c4c(c5c6ccccc6n2c5c31)C(=O)NC4 [Midostaurin] | 2.2 | -1.3 | 0.6 | -4.2 | -0.3 | 5.9 | 3.4 | -11 | -1.6 | 5.8 | 7.9 | 7.8 | 3.1
19 | NS(=O)(=O)NCCNc1nonc1/C(=N/O)Nc1ccc(F)c(Br)c1 [Epacadostat] | -0.7 | -0.7 | -0.7 | -0.7 | 0.6 | -0.7 | -0.2 | 0 | -0.7 | 5.6 | 0 | -0.5 | 0.1
20 | CO[C@@]12[C@H](COC(N)=O)C3=C(C(=O)C(C)=C(N)C3=O)N1C[C@@H]1N[C@@H]12 [Mitomycin] | 1.6 | -1.3 | -3.8 | -4.7 | 0.6 | 14.4 | 22.4 | 10.3 | 9.5 | 18.4 | 6.6 | 15.5 | 17.3
21 | COc1cc2c(Nc3ccc(NC(=O)c4ccccc4)cc3)ncnc2cc1OCCCN1CCOCC1 | 2.9 | 0.8 | 0.1 | -2.2 | -2.2 | 4.9 | 8.1 | 2.2 | 0.4 | -2 | 7.1 | 6.7 | 1.6
22 | CC[C@]1(O)C[C@H]2CN(CCc3c([nH]c4ccccc34)[C@@](C(=O)OC)(c3cc4c(cc3OC)N(C=O)[C@H]3[C@@](O)(C(=O)OC)[C@H](OC(C)=O)[C@]5(CC)C=CCN6CC[C@]43[C@@H]65)C2)C1 [Vincristine] | -4.8 | 9.3 | 13.4 | 10.8 | -10.2 | 24.2 | 24 | 13.2 | 16.1 | 16.9 | 26 | 10 | 18.3
23 | CC(C)n1nc(-c2cc3cc(O)ccc3[nH]2)c2c(N)ncnc21 [Torkinib] | 2.3 | 4.4 | -0.9 | -1.3 | -3.5 | 2.1 | 13.7 | 5.2 | 1.1 | 8.1 | 2 | -1.3 | 2.2
24 | CNC(=O)c1cc(Oc2ccc(NC(=O)Nc3ccc(Cl)c(C(F)(F)F)c3)c(F)c2)ccn1 [Regorafenib] | -2 | -2 | -0.6 | -2 | 2.7 | -2 | -1.1 | 0.8 | -2 | -2 | -0.4 | -2 | -2
25 | CN1CCN(CCOc2cc(OC3CCOCC3)c3c(Nc4c(Cl)ccc5c4OCO5)ncnc3c2)CC1 [Saracatinib] | 0.9 | 0.3 | 4.3 | -0.5 | -1.5 | -0.7 | 5.6 | 2.9 | -2.3 | 5.7 | -2.8 | 2.3 | -1.7
26 | O=c1cc(N2CCOCC2)oc2c(-c3cccc4c3sc3ccccc34)cccc12 [NU7441] | 1.9 | -4.3 | 1.5 | -4 | -4.3 | 0 | 8.5 | -1.9 | -4.3 | -0.8 | 2.9 | 1.1 | -3.9
27 | N#CC[C@H](C1CCCC1)n1cc(-c2ncnc3[nH]ccc23)cn1 [Ruxolitinib] | -0.1 | 0.9 | -0.8 | -0.6 | 1.3 | -0.8 | -0.8 | -0.8 | -0.8 | -0.8 | 4.4 | 2.7 | 1.7
28 | CC#CC(=O)N1CCC[C@H]1c1nc(-c2ccc(C(=O)Nc3ccccn3)cc2)c2c(N)nccn12 [Acalabrutinib] | -2.5 | -3.5 | -3.2 | -2.9 | 1.4 | 5.7 | 9.7 | 11.2 | -3.5 | 17.5 | -3.5 | 2.4 | -2.1
29 | NC1(c2ccc(-c3nc4ccn5c(=O)[nH]nc5c4cc3-c3ccccc3)cc2)CCC1 [MK-2206] | 10.4 | 3.7 | 0.7 | -3.1 | -2.3 | 1.8 | 14 | 6.8 | 3.4 | 13.3 | 4.8 | 15.8 | 0.5
